Measured values published in PubChem BioAssay AID1963867 (Molecular Pharmacology Branch, DTP, NCI, 2024).

Test system: KRAS-mutant PDC tumor spheroid with HUVEC/MSC, viability
Assay: Anticancer human tumor 327498-153-R-J2-PDC patient-derived uterine carcinosarcoma cell line growth inhibition [KRAS2]
Conditions: for viability, T/C: stronger effect = lower value
Outline: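 Combination screen of spheroid viability in tumor-cell co-cultures with endothelial (HUVEC) and mesenchymal stem cell stroma. Each agent was tested in half-log dilutions, topping at clinical Cmax or at 10 microM without a known Cmax.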

[1] = curve of first compound, second compound 0.1 µM
[2] = curve of first compound, second compound 0.316 µM
[3] = curve of first compound, second compound 1 µM
[4] = curve of first compound, second compound 3.16 µM
[5] = curve of first compound, second compound 10 µM
[6] = second compound 0.1 µM, first compound 0.000316 µM
[7] = second compound 0.1 µM, first compound 0.001 µM
[8] = second compound 0.1 µM, first compound 0.00316 µM
[9] = second compound 0.1 µM, first compound 0.01 µM
[10] = second compound 0.1 µM, first compound 0.0316 µM
[11] = second compound 0.316 µM, first compound 0.000316 µM
[12] = second compound 0.316 µM, first compound 0.001 µM
[13] = second compound 0.316 µM, first compound 0.00316 µM
[14] = second compound 0.316 µM, first compound 0.01 µM
[15] = second compound 0.316 µM, first compound 0.0316 µM
[16] = second compound 1 µM, first compound 0.000316 µM
[17] = second compound 1 µM, first compound 0.001 µM
[18] = second compound 1 µM, first compound 0.00316 µM
[19] = second compound 1 µM, first compound 0.01 µM
[20] = second compound 1 µM, first compound 0.0316 µM
[21] = second compound 3.16 µM, first compound 0.000316 µM
[22] = second compound 3.16 µM, first compound 0.001 µM
[23] = second compound 3.16 µM, first compound 0.00316 µM
[24] = second compound 3.16 µM, first compound 0.01 µM
[25] = second compound 3.16 µM, first compound 0.0316 µM
[26] = second compound 10 µM, first compound 0.000316 µM
[27] = second compound 10 µM, first compound 0.001 µM
[28] = second compound 10 µM, first compound 0.00316 µM
[29] = second compound 10 µM, first compound 0.01 µM
[30] = second compound 10 µM, first compound 0.0316 µM
[31] = second compound 0.1 µM, first compound 0.1 µM
[32] = second compound 0.1 µM, first compound 0.316 µM
[33] = second compound 0.1 µM, first compound 1 µM
[34] = second compound 0.1 µM, first compound 3.16 µM
[35] = second compound 0.1 µM, first compound 10 µM
[36] = second compound 0.316 µM, first compound 0.1 µM
[37] = second compound 0.316 µM, first compound 0.316 µM
[38] = second compound 0.316 µM, first compound 1 µM
[39] = second compound 0.316 µM, first compound 3.16 µM
[40] = second compound 0.316 µM, first compound 10 µM
[41] = second compound 1 µM, first compound 0.1 µM
[42] = second compound 1 µM, first compound 0.316 µM
[43] = second compound 1 µM, first compound 1 µM
[44] = second compound 1 µM, first compound 3.16 µM
[45] = second compound 1 µM, first compound 10 µM
[46] = second compound 3.16 µM, first compound 0.1 µM
[47] = second compound 3.16 µM, first compound 0.316 µM
[48] = second compound 3.16 µM, first compound 1 µM
[49] = second compound 3.16 µM, first compound 3.16 µM
[50] = second compound 3.16 µM, first compound 10 µM
[51] = second compound 10 µM, first compound 0.1 µM
[52] = second compound 10 µM, first compound 0.316 µM
[53] = second compound 10 µM, first compound 1 µM
[54] = second compound 10 µM, first compound 3.16 µM
[55] = second compound 10 µM, first compound 10 µM
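Further: spheroids exposed to agents for seven days before reading.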
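Wherever viability, T/C is given: 100% = DMSO vehicle wells so lower means fewer viable cells.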

Molecule `CC(=O)Nc1cccc(-n2c(=O)n(C3CC3)c(=O)c3c(Nc4ccc(I)cc4F)n(C)c(=O)c(C)c32)c1` + CC1OCC2(CCN(c3cnc(Sc4ccnc(N)c4Cl)c(N)n3)CC2)C1N has an IC50 [1] of 1.66 nM, an IC50 [2] of 0.493 nM and an IC50 [3] of less than 0.1 nM. It also gave an IC50 [4] of less than 0.1 nM, an IC50 [5] of less than 0.1 nM and a viability, T/C (second compound 0.1 µM, first compound 0.0001 µM) of 75.2%. It also gave a viability, T/C [6] of 58.4%, a viability, T/C [7] of 50.2% and a viability, T/C [8] of 46.5%. The viability, T/C [9] was 44.7%, the viability, T/C [10] was 26.3% and the viability, T/C (second compound 0.316 µM, first compound 0.0001 µM) was 52.7%. For the same molecule, the viability, T/C [11] was 52.4%, the viability, T/C [12] was 48.2% and the viability, T/C [13] was 40.8%. It also gave a viability, T/C [14] of 35%, a viability, T/C [15] of 22.8% and a viability, T/C (second compound 1 µM, first compound 0.0001 µM) of 41%. The viability, T/C [16] was 35.2%, the viability, T/C [17] was 34.9% and the viability, T/C [18] was 29.7%. For the same molecule, the viability, T/C [19] was 26.8%, the viability, T/C [20] was 16.1% and the viability, T/C (second compound 3.16 µM, first compound 0.0001 µM) was 31.1%. For the same molecule, the viability, T/C [21] was 26.9%, the viability, T/C [22] was 22.1% and the viability, T/C [23] was 22.1%. The viability, T/C [24] was 17.2%, the viability, T/C [25] was 13.1% and the viability, T/C (second compound 10 µM, first compound 0.0001 µM) was 22.8%. It also gave a viability, T/C [26] of 21.3%, a viability, T/C [27] of 21.6% and a viability, T/C [28] of 15.8%. It also gave a viability, T/C [29] of 13.9% and a viability, T/C [30] of 11.3%.

For `COc1cc(OC)cc(N(CCNC(C)C)c2ccc3ncc(-c4cnn(C)c4)nc3c2)c1`, the viability, T/C (compound 0.0316 µM) was 73.7% [middle of 5 runs], the viability, T/C (compound 0.1 µM) was 71.3% [middle of 5 runs] and the viability, T/C (compound 10 µM) was 0.42% [middle of 5 runs].

For `CC(C)NCC(C(=O)N1CCN(c2ncnc3c2C(C)CC3O)CC1)c1ccc(Cl)cc1` (stereo not drawn), the viability, T/C (compound 0.0316 µM) was 97.8% [middle of 5 runs], the viability, T/C (compound 0.1 µM) was 77.2% [middle of 5 runs] and the viability, T/C (compound 0.316 µM) was 63.1% [middle of 5 runs]. For the same molecule, the viability, T/C (compound 1 µM) was 48.3% [middle of 5 runs], the viability, T/C (compound 3.16 µM) was 37.9% [middle of 5 runs] and the viability, T/C (compound 10 µM) was 25.4% [middle of 5 runs]. The IC50 (curve of compound) was 982 nM [middle of 5 runs].

With `CC1(C)CCC(CN2CCN(c3ccc(C(=O)NS(=O)(=O)c4ccc(NCC5CCOCC5)c([N+](=O)[O-])c4)c(Oc4cnc5[nH]ccc5c4)c3)CC2)=C(c2ccc(Cl)cc2)C1` + C=CC(=O)N1CCN(c2nc(=O)n(-c3c(C)ccnc3C(C)C)c3nc(-c4c(O)cccc4F)c(F)cc23)C(C)C1 the IC50 [1] was 1300 nM, the IC50 [2] was 1740 nM and the IC50 [3] was 1580 nM. The IC50 [4] was 1210 nM, the IC50 [5] was less than 31.6 nM and the viability, T/C [10] was 65.7%. For the same molecule, the viability, T/C [31] was 61.1%, the viability, T/C [32] was 54% and the viability, T/C [33] was 57.4%. For the same molecule, the viability, T/C [34] was 36.5%, the viability, T/C [35] was 1.21% and the viability, T/C [15] was 57%. The viability, T/C [36] was 54.5%, the viability, T/C [37] was 58.1% and the viability, T/C [38] was 57.5%. The viability, T/C [39] was 42.7%, the viability, T/C [40] was 6.41% and the viability, T/C [20] was 60.7%. It also gave a viability, T/C [41] of 55.2%, a viability, T/C [42] of 57.4% and a viability, T/C [43] of 52.2%. The viability, T/C [44] was 44.3%, the viability, T/C [45] was 1.34% and the viability, T/C [25] was 52.6%. The viability, T/C [46] was 53.5%, the viability, T/C [47] was 53.2% and the viability, T/C [48] was 52.6%. It also gave a viability, T/C [49] of 37.4%, a viability, T/C [50] of 0.58% and a viability, T/C [30] of 43.2%. It also gave a viability, T/C [51] of 41.6%, a viability, T/C [52] of 37.8% and a viability, T/C [53] of 46.5%. The viability, T/C [54] was 10.5% and the viability, T/C [55] was 2.01%.

In the case of `COc1cc2nccc(Oc3ccc(NC(=O)C4(C(=O)Nc5ccc(F)cc5)CC4)cc3)c2cc1OC`, the viability, T/C (compound 0.0316 µM) is reported as 95.8% [middle of 5 runs], the viability, T/C (compound 0.1 µM) is reported as 94.9% [middle of 5 runs] and the viability, T/C (compound 0.316 µM) is reported as 97.2% [middle of 5 runs].

`Cn1ncnc1[C@H]1c2n[nH]c(=O)c3cc(F)cc(c23)N[C@@H]1c1ccc(F)cc1` + COc1cc2nc(C)nc(NC(C)c3cc(N)cc(C(F)(F)F)c3)c2cc1OC1CCOC1 showed an IC50 [1] of 12.5 nM, an IC50 [2] of 9.03 nM and an IC50 [3] of 4.31 nM. The IC50 [4] was 7.37 nM, the IC50 [5] was 1.4 nM and the viability, T/C [6] was 79.3%. The viability, T/C [7] was 82.3%, the viability, T/C [8] was 68.9% and the viability, T/C [9] was 54.5%. It also gave a viability, T/C [10] of 33.3%, a viability, T/C [31] of 20.1% and a viability, T/C [11] of 82.1%. It also gave a viability, T/C [12] of 63.5%, a viability, T/C [13] of 68.6% and a viability, T/C [14] of 48.1%. The viability, T/C [15] was 32.2%, the viability, T/C [36] was 20.5% and the viability, T/C [16] was 76.6%. For the same molecule, the viability, T/C [17] was 69.7%, the viability, T/C [18] was 50% and the viability, T/C [19] was 42.1%. The viability, T/C [20] was 28.7%, the viability, T/C [41] was 20.1% and the viability, T/C [21] was 62.9%. The viability, T/C [22] was 68.8%, the viability, T/C [23] was 58.1% and the viability, T/C [24] was 47.3%. For the same molecule, the viability, T/C [25] was 26.5%, the viability, T/C [46] was 20.4% and the viability, T/C [26] was 50%. It also gave a viability, T/C [27] of 51.6%, a viability, T/C [28] of 48.5% and a viability, T/C [29] of 42%. It also gave a viability, T/C [30] of 27.8% and a viability, T/C [51] of 18.5%.

`COc1cc(Nc2ncc3c(n2)-c2ccc(Cl)cc2C(c2c(F)cccc2OC)=NC3)ccc1C(=O)O` + CNCc1ccccc1-c1csc(C(C)Nc2nc(C)nc3cc(OC)c(OC)cc23)c1 showed an IC50 [1] of less than 31.6 nM, an IC50 [2] of less than 31.6 nM and an IC50 [3] of less than 31.6 nM. For the same molecule, the IC50 [4] was less than 31.6 nM, the IC50 [5] was less than 31.6 nM and the viability, T/C [10] was 16.1%. For the same molecule, the viability, T/C [31] was 10.8%, the viability, T/C [32] was 9.69% and the viability, T/C [33] was 10.2%. The viability, T/C [34] was 12%, the viability, T/C [35] was 12.3% and the viability, T/C [15] was 15.6%. The viability, T/C [36] was 11.1%, the viability, T/C [37] was 10.5% and the viability, T/C [38] was 10.8%. The viability, T/C [39] was 12.9%, the viability, T/C [40] was 12.8% and the viability, T/C [20] was 14.7%. The viability, T/C [41] was 10.7%, the viability, T/C [42] was 8.64% and the viability, T/C [43] was 8.26%. The viability, T/C [44] was 11.9%, the viability, T/C [45] was 11.6% and the viability, T/C [25] was 0.1%. It also gave a viability, T/C [46] of 0.06%, a viability, T/C [47] of 0.05% and a viability, T/C [48] of 0.05%. It also gave a viability, T/C [49] of 0.06%, a viability, T/C [50] of 0.15% and a viability, T/C [30] of 0.14%. The viability, T/C [51] was 0.13%, the viability, T/C [52] was 0.14% and the viability, T/C [53] was 0.13%. For the same molecule, the viability, T/C [54] was 0.63% and the viability, T/C [55] was 0.22%.
